Laboratory results published in ChEMBL document CHEMBL1158657, “Improved antitumor activity by modification of nogalamycin” (1979).
≈ marks a conversion by molar mass, not a printed value. Calls of active or inactive are those of the source. The calls are words filed in the database; no cut-off is given here.

Assays:
Type in all cases: functional
B16 [1] = assay: Antitumor activity against mouse B16 cells xenografted in mouse assessed as increase in life span at 2.5 mg/kg/day, ip after 9 days; settings: route intraperitoneal
B16 [2] = assay: Antitumor activity against mouse B16 cells xenografted in mouse assessed as increase in life span at 6 to 12 mg/kg/day, ip after 9 days; settings: route intraperitoneal
B16 [3] = assay: Antitumor activity against mouse B16 cells xenografted in mouse assessed as increase in life span at 10 mg/kg/day, ip after 9 days; settings: route intraperitoneal
L1210 [4] = assay: Cytotoxicity against mouse L1210 cells; settings: Mus musculus, L1210, read-out: ID50
L1210 [5] = assay: Antitumor activity against mouse L1210 cells xenografted in mouse assessed as increase in life span at 12.5 mg/kg/day, ip after 9 days; settings: route intraperitoneal
P388 [6] = assay: Antitumor activity against mouse P388 cells xenografted in mouse assessed as increase in life span at 12.5 mg/kg/day, ip after 9 days; settings: route intraperitoneal
P388 [7] = assay: Antitumor activity against mouse P388 cells xenografted in mouse assessed as increase in life span at 3.13 mg/kg/day, ip after 9 days; settings: route intraperitoneal
P388 [8] = assay: Antitumor activity against mouse P388 cells xenografted in mouse assessed as increase in life span at 12.5 mg/kg/day, iv after 9 days
P388 [9] = assay: Antitumor activity against mouse P388 cells xenografted in mouse assessed as increase in life span at 6.25 mg/kg/day, iv after 9 days
P388 [10] = assay: Antitumor activity against mouse P388 cells xenografted in mouse assessed as increase in life span at 3.13 mg/kg/day, iv after 9 days
L1210 [11] = assay: Antitumor activity against mouse L1210 cells xenografted in mouse assessed as increase in life span at 6.25 mg/kg/day, ip after 9 days; settings: route intraperitoneal
L1210 [12] = assay: Antitumor activity against mouse L1210 cells xenografted in mouse assessed as increase in life span at 3.13 mg/kg/day, ip after 9 days; settings: route intraperitoneal
B16 [13] = assay: Antitumor activity against mouse B16 cells xenografted in mouse assessed as increase in life span at 20 mg/kg/day, ip after 9 days; settings: route intraperitoneal
B16 [14] = assay: Antitumor activity against mouse B16 cells xenografted in mouse assessed as increase in life span at 5 mg/kg/day, ip after 9 days; settings: route intraperitoneal
P388 [15] = assay: Antitumor activity against mouse P388 cells xenografted in mouse assessed as increase in life span at 6.25 mg/kg/day, ip after 9 days; settings: route intraperitoneal
P388 [16] = assay: Antitumor activity against mouse P388 cells xenografted in mouse assessed as increase in life span at 12.5 mg/kg/day, po after 9 days
Colon 26 = assay: Antitumor activity against mouse Colon 26 cells xenografted in mouse assessed as increase in life span at 25 mg/kg, ip Q4D after 2 days; settings: route intraperitoneal
[17] = test system: Lewis lung carcinoma cell line; assay: Antitumor activity against mouse LLC cells xenografted in mouse assessed as increase in life span at 12.5 mg/kg/day, ip after 9 days; settings: route intraperitoneal
MC-38 = assay: Antitumor activity against mouse Colon 38 cells xenografted in mouse assessed as increase in life span at 25 mg/kg, sc Q7D after 2 days; settings: route subcutaneous
[18] = Antitumor activity against mouse CD8F1 cells xenografted in mouse assessed as increase in life span at 25 mg/kg, sc Q7D after 5 days; settings: route subcutaneous
B16 [19] = assay: Antitumor activity against mouse B16 cells xenografted in mouse assessed as increase in life span at 12.5 mg/kg/day, ip after 9 days; settings: route intraperitoneal
L1210 [20] = assay: Inhibition of DNA synthesis in mouse L1210 cells; settings: read-out: ID50 (the source's name)
L1210 [21] = assay: Inhibition of RNA synthesis in mouse L1210 cells; settings: read-out: ID50 (the source's name)
L1210 [22] = assay: Inhibition of RNA synthesis in mouse L1210 cells at 10 nmole/ml
P388 [23] = assay: Antitumor activity against mouse P388 cells xenografted in mouse assessed as increase in life span at 2 mg/kg/day, ip after 9 days; settings: route intraperitoneal
P388 [24] = assay: Antitumor activity against mouse P388 cells xenografted in mouse assessed as increase in life span at 0.5 mg/kg/day, ip after 9 days; settings: route intraperitoneal
P388 [25] = assay: Antitumor activity against mouse P388 cells xenografted in mouse assessed as increase in life span at 0.25 mg/kg/day, ip after 9 days; settings: route intraperitoneal
P388 [26] = assay: Antitumor activity against mouse P388 cells xenografted in mouse assessed as increase in life span at 2 mg/kg/day, iv after 9 days
P388 [27] = assay: Antitumor activity against mouse P388 cells xenografted in mouse assessed as increase in life span at 1 mg/kg/day, ip after 9 days; settings: route intraperitoneal
L1210 [28] = assay: Antitumor activity against mouse L1210 cells xenografted in mouse assessed as increase in life span at 1 mg/kg/day, ip after 9 days; settings: route intraperitoneal
P388 [29] = assay: Antitumor activity against mouse P388 cells xenografted in mouse assessed as increase in life span at 0.5 mg/kg/day, iv after 9 days
P388 [30] = assay: Antitumor activity against mouse P388 cells xenografted in mouse assessed as increase in life span at 0.25 mg/kg/day, iv after 9 days
L1210 [31] = assay: Antitumor activity against mouse L1210 cells xenografted in mouse assessed as increase in life span at 2 mg/kg/day, ip after 9 days; settings: route intraperitoneal
L1210 [32] = assay: Antitumor activity against mouse L1210 cells xenografted in mouse assessed as increase in life span at 0.5 mg/kg/day, ip after 9 days; settings: route intraperitoneal
L1210 [33] = assay: Antitumor activity against mouse L1210 cells xenografted in mouse assessed as increase in life span at 0.25 mg/kg/day, ip after 9 days; settings: route intraperitoneal
B16 [34] = assay: Antitumor activity against mouse B16 cells xenografted in mouse assessed as increase in life span at 2 mg/kg/day, ip after 9 days; settings: route intraperitoneal
B16 [35] = assay: Antitumor activity against mouse B16 cells xenografted in mouse assessed as increase in life span at 1 mg/kg/day, ip after 9 days; settings: route intraperitoneal
B16 [36] = assay: Antitumor activity against mouse B16 cells xenografted in mouse assessed as increase in life span at 0.5 mg/kg/day, ip after 9 days; settings: route intraperitoneal
B16 [37] = assay: Antitumor activity against mouse B16 cells xenografted in mouse assessed as increase in life span at 0.25 mg/kg/day, ip after 9 days; settings: route intraperitoneal
P388 [38] = assay: Antitumor activity against mouse P388 cells xenografted in mouse assessed as increase in life span at 1 mg/kg/day, iv after 9 days

With `CO[C@H]1C[C@@](C)(O)Cc2cc3c(c(O)c21)C(=O)c1c(O)cc2c(c1C3=O)O[C@@H]1O[C@@]2(C)[C@H](O)[C@@H](N(C)C)[C@@H]1O` the Activity (B16 [1]) was 64%, the Activity (B16 [2]) was 77% and the Activity (B16 [3]) was 114%. For the same molecule, the IC50 (L1210 [4]) was 0.061 µg/mL (≈ 0.113 µM), the Activity (L1210 [5]) was 140% and the Activity (P388 [6]) was 197%. For the same molecule, the Activity (P388 [7]) was 61%, the Activity (P388 [8]) was 187% and the Activity (P388 [9]) was 53%. The Activity (P388 [10]) was 25%, the Activity (L1210 [11]) was 55% and the Activity (L1210 [12]) was 42%. For the same molecule, the Activity (B16 [13]) was -9%, the Activity (B16 [14]) was 88% and the Activity (P388 [15]) was 111%. It also gave an Activity (P388 [16]) of 48%, an Activity (Colon 26) of 106% and an Activity [17] of 38%. For the same molecule, the Activity (MC-38) was 21%, the Activity [18] was 1% and the Activity (B16 [19]) was 109%. For the same molecule, the IC50 (L1210 [20]) was greater than 46 µM, the IC50 (L1210 [21]) was greater than 46 µM and the “inhibition (INH)” value (L1210 [22]) was 0%.

`COc1cccc2c1C(=O)c1c(O)c3c(c(O)c1C2=O)C[C@@](O)(C(=O)CO)C[C@@H]3O[C@H]1C[C@H](N)[C@H](O)[C@H](C)O1` [DOXORUBICIN] gave an Activity (P388 [23]) of 7%, an Activity (P388 [24]) of 137% and an Activity (P388 [25]) of 61%. For the same molecule, the Activity (P388 [26]) was 29%, the Activity (P388 [27]) was 158% and the Activity (L1210 [28]) was 38%. For the same molecule, the Activity (P388 [29]) was 3%, the Activity (P388 [30]) was 8% and the Activity (L1210 [31]) was 40%. It also gave an Activity (L1210 [32]) of 29%, an Activity (L1210 [33]) of 20% and an Activity (B16 [34]) of 158%. The Activity (B16 [35]) was 166%, the Activity (B16 [36]) was 160% and the Activity (B16 [37]) was 127%. The Activity (P388 [16]) was “inactive” and the Activity (P388 [38]) was 10%.
